Read-outs that look alike come from different tables or passages of the source.
Tests used:
Format in all cases: cell-based
[1] = tested on: Pyricularia oryzae; settings: 25° C., 1 day or 2 days
[2] = tested on: Colletotrichum orbiculare; settings: 25° C., 1 day or 2 days
[3] = tested on: Fusarium oxysporum
[4] = tested on: Colletotrichum destructivum; settings: 25° C., 1 day or 2 days
[5] = tested on: Botrytis cinerea; settings: 25° C., 1 day or 2 days

Substance | Plate antimicrobial activity test Pyricularia oryzae (level) ([1]; peptide 1 μM) | Plate antimicrobial activity test Pyricularia oryzae (level) ([1]; peptide 10 μM) | Plate antimicrobial activity test Pyricularia oryzae (level) ([1]; peptide 100 μM) | Plate antimicrobial activity test Collectotrichum orbiculare (level) ([2]; peptide 1 μM) | Plate antimicrobial activity test Collectotrichum orbiculare (level) ([2]; peptide 10 μM) | Plate antimicrobial activity test Collectotrichum orbiculare (level) ([2]; peptide 100 μM) | Plate antimicrobial activity test Fusarium oxysporum (level) [3] | Plate antimicrobial activity test Colletotrichum destructivum (level) ([4]; peptide 1 μM) | Plate antimicrobial activity test Colletotrichum destructivum (level) ([4]; peptide 10 μM) | Plate antimicrobial activity test Colletotrichum destructivum (level) ([4]; peptide 100 μM) | Plate antimicrobial activity test Botrytis cinerea (level) ([5]; peptide 1 μM) | Plate antimicrobial activity test Botrytis cinerea (level) ([5]; peptide 10 μM) | Plate antimicrobial activity test Botrytis cinerea (level) ([5]; peptide 100 μM)
YGFPA (listed as Solanum lycopersicum) [TsORF18-2-5aa-2] | 0 | 0 | 0 | 0 | 0 | 0 | 0 | 0 | 0 | 0 | 0 | 0 | 0
SERTRKFW (listed as Solanum lycopersicum) [TsORF18-2-8aa-8] | 0 | 0 | 0 | 0 | 0 | 0 | 0 | 0 | 0 | 0 | 0 | 0 | 0
RTRKF (listed as Solanum lycopersicum) [TsORF18-2-5aa-10] | 0 | 0 | 0 | 0 | 0 | 0 | 0 | 0 | 0 | 0 | 0 | 0 | 1
FPAFSERT (listed as Solanum lycopersicum) [TsORF18-2-8aa-4] | 0 | 0 | 0 | 0 | 0 | 0 | 0 | 0 | 0 | 0 | 0 | 0 | 0
WKGKT (listed as Solanum lycopersicum) [TsORF18-2-5aa-18] | 0 | 0 | 0 | 0 | 0 | 0 | 0 | 0 | 0 | 0 | 0 | 0 | 0
YGFPAFSE (listed as Solanum lycopersicum) [TsORF18-2-8aa-2] | 0 | 0 | 0 | 0 | 0 | 0 | 0 | 0 | 0 | 0 | 0 | 0 | 0
KGKTS (listed as Solanum lycopersicum) [TsORF18-2-5aa-19] | 0 | 0 | 0 | 0 | 0 | 0 | 0 | 0 | 0 | 0 | 0 | 0 | 0
RIWKG (listed as Solanum lycopersicum) [TsORF18-2-5aa-16] | 0 | 0 | 0 | 0 | 0 | 0 | 0 | 0 | 0 | 0 | 0 | 0 | 0
FSERT (listed as Solanum lycopersicum) [TsORF18-2-5aa-7] | 0 | 0 | 0 | 0 | 0 | 0 | 0 | 0 | 0 | 0 | 0 | 0 | 0
FWRIW (listed as Solanum lycopersicum) [TsORF18-2-5aa-14] | 0 | 0 | 0 | 0 | 0 | 0 | 0 | 0 | 0 | 0 | 0 | 0 | 0
FPAFS (listed as Solanum lycopersicum) [TsORF18-2-5aa-4] | 0 | 0 | 0 | 0 | 0 | 0 | 0 | 0 | 0 | 0 | 0 | 0 | 0
ERTRK (listed as Solanum lycopersicum) [TsORF18-2-5aa-9] | 0 | 0 | 0 | 0 | 0 | 0 | 0 | 0 | 0 | 0 | 0 | 0 | 0
SERTR (listed as Solanum lycopersicum) [TsORF18-2-5aa-8] | 0 | 0 | 0 | 0 | 0 | 0 | 0 | 0 | 0 | 0 | 0 | 0 | 0
